Broadly, the IC50 is the point on the concentration scale where inhibition reaches its midpoint.

Results on two compounds are retold here after patent US9597330B2, “Drugs for treating respiratory diseases” (DAIICHI SANKYO COMPANY, LIMITED, priority 2013, dated 2017).

The target in the assay is hNav 1.7 (Homo sapiens (Human), UniProt Q15858). The experiment in a line: Electrophysiological evaluation, automated patch clamp (IonWorks Quattro, Population Patch Clamp mode). Format: cell-based. The note with it: HEK293A cells stably expressing hNav 1.7/β1/β2; response to second depolarization pulse, pre-pulse potential set to V1/2; read-out: hNav1.7 IC50. In general terms: In patch-clamp work, channel activity is measured electrically.
Sequence of hNav 1.7 (Q15858 whole entry): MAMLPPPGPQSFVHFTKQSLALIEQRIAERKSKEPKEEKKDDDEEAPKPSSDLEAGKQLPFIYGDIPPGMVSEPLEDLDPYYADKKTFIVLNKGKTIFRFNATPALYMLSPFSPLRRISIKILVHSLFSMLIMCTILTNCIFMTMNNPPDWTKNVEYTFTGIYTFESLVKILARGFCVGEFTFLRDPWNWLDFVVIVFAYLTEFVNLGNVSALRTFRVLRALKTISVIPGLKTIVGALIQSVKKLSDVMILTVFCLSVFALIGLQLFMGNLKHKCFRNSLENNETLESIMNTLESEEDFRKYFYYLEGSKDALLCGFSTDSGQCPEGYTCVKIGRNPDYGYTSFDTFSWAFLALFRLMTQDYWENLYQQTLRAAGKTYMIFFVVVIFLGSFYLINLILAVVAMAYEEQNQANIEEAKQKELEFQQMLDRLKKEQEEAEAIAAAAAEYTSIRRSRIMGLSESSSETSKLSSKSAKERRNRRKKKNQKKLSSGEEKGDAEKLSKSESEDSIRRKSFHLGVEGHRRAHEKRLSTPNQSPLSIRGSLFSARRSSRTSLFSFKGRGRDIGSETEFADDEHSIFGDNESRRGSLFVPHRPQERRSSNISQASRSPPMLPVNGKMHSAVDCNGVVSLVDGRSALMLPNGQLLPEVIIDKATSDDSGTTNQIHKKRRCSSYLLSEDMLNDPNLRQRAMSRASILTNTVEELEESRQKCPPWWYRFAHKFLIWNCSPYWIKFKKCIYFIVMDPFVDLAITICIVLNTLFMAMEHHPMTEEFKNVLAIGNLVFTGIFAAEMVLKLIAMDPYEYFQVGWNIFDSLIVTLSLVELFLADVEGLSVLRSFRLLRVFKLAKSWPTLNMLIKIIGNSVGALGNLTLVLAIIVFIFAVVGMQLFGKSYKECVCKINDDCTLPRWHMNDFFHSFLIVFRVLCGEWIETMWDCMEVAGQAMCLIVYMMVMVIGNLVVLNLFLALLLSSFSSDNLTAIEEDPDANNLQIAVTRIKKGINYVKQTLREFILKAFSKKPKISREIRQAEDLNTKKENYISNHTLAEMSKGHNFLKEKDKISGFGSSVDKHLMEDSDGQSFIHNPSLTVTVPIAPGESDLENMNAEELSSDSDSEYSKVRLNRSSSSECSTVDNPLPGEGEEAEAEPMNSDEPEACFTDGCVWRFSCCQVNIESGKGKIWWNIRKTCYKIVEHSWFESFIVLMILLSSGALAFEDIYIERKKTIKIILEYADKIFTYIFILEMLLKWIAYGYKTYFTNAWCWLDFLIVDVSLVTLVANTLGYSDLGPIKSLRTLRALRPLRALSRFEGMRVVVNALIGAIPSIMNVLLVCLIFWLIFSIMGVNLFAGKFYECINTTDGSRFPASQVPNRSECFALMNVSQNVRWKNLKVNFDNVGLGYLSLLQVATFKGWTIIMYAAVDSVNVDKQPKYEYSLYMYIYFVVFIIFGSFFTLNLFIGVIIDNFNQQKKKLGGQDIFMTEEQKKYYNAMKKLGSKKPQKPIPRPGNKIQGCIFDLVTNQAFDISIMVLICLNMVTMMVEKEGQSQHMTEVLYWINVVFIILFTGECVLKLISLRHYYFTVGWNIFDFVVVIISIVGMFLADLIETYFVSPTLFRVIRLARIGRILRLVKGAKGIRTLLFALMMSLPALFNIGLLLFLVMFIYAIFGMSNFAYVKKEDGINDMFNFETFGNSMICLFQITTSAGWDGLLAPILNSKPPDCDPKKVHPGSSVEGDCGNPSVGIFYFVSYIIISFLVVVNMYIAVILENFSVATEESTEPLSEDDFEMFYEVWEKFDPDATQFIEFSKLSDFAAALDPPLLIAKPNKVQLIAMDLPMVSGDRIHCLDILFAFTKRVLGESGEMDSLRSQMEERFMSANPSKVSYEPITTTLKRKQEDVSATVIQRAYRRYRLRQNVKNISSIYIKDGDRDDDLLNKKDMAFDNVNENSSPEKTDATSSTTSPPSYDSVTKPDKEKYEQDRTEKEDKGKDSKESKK
Sequence of hNav 1.7 (Q07699 19-218 partner): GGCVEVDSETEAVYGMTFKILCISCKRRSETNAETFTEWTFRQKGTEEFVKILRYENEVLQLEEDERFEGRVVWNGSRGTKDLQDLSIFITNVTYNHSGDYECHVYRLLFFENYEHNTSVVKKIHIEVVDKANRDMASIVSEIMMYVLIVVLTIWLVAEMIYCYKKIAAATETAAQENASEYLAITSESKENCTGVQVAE
Sequence of hNav 1.7 (O60939 30-215 partner): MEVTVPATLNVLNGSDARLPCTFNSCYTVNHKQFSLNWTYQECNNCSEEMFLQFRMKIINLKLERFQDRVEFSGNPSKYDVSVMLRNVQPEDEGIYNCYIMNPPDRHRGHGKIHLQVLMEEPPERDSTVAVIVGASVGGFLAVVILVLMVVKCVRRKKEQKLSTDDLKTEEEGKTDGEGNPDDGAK

With `Cn1nccc1[C@H]1CCCCC[C@@H]1Oc1cc(F)c(S(=O)(=O)Nc2ccncn2)cc1F` (relative stereo) [Compound 9, 2,5-Difluoro-4-{[(1S*,2R*)-2-(1-methyl-1H-pyrazol-5-yl)cycloheptyl]oxy}-N-(pyrimidin-4-yl)benzenesulfonamide], the half-inhibitory concentration (IC50) worked out at 91 nM.

With `Cn1nccc1[C@H]1CCCCC[C@@H]1Oc1cc(F)c(S(=O)(=O)Nc2ccncn2)cc1Cl` (relative stereo) [Compound 19, 5-Chloro-2-fluoro-4-{[(1S*,2R*)-2-(1-methyl-1H-pyrazol-5-yl)cycloheptyl]oxy}-N-(pyrimidin-4-yl)benzenesulfonamide], the IC50 was found to be 37 nM.
